Source: ChEMBL document CHEMBL5257115, “Synthesis of novel ciprofloxacin-avibactam conjugates for the development of second-generation non-β-lactam-β-lactamase inhibitors” (Bioorg Med Chem Lett, 2023)
In brackets after ≈: the same amount, converted by molar mass. Activity calls are given as the source filed them. The rule behind the calls is not given here.

Experiments:
Escherichia coli [1] = test: Antibacterial activity against multidrug resistant Escherichia coli ATCC 2774 assessed as bacterial growth inhibition; type: functional
Staphylococcus aureus [2] = test: Antibacterial activity against multidrug resistant Staphylococcus aureus ATCC 43300 assessed as bacterial growth inhibition; type: functional
[3] = molecular target: T1, Metallo-beta-lactamase type 2 (Bacillus cereus, UniProt P14488); test: Inhibition of Bacillus cereus beta-lactamase II
T1 sequence (P14488 whole entry): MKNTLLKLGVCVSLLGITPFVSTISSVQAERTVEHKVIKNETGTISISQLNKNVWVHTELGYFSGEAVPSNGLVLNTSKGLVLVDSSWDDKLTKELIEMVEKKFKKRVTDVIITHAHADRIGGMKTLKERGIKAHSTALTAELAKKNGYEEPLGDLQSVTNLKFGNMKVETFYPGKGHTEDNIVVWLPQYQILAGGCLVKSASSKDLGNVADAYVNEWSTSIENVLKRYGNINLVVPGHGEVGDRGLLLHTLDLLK

Staphylococcus aureus [4] = test: Antibacterial activity against multidrug resistant Staphylococcus aureus ATCC 25923 assessed as bacterial growth inhibition; type: functional
Escherichia coli [5] = test: Antibacterial activity against multidrug resistant Escherichia coli ATCC 25922 assessed as bacterial growth inhibition; type: functional
Klebsiella pneumoniae [6] = test: Synergistic antibacterial activity against multidrug resistant Klebsiella pneumoniae ATCC 2146 assessed as bacterial growth inhibition in presence of ceftazidime; type: functional, organism-based
Acinetobacter baumannii = test: Antibacterial activity against multidrug resistant Acinetobacter baumannii ATCC 2803 assessed as bacterial growth inhibition; type: functional
[7] = Hemolytic activity in human RBC assessed as hemolysis at 512 ug/ml; type: toxicity, cell-based, Erythrocyte; settings: red blood cells (RBC), at 512 µg/mL, read-out: Activity
Escherichia coli [8] = test: Synergistic antibacterial activity against multidrug resistant Escherichia coli ATCC 25922 assessed as bacterial growth inhibition in presence of ceftazidime; type: functional, organism-based
Klebsiella pneumoniae [9] = test: Antibacterial activity against multidrug resistant Klebsiella pneumoniae ATCC 2782 assessed as bacterial growth inhibition; type: functional
Klebsiella pneumoniae [10] = test: Antibacterial activity against multidrug resistant Klebsiella pneumoniae ATCC 2146 assessed as bacterial growth inhibition; type: functional
Klebsiella pneumoniae [11] = test: Synergistic antibacterial activity against multidrug resistant Klebsiella pneumoniae ATCC 2782 assessed as bacterial growth inhibition in presence of ceftazidime; type: functional, organism-based
Escherichia coli [12] = test: Synergistic antibacterial activity against multidrug resistant Escherichia coli ATCC 2774 assessed as bacterial growth inhibition in presence of ceftazidime; type: functional, organism-based

| SMILES | MIC (Escherichia coli [1]) | MIC (Staphylococcus aureus [2]) | IC50 [3] | MIC (Staphylococcus aureus [4]) | MIC (Escherichia coli [5]) | Activity (Klebsiella pneumoniae [6]) | MIC (Acinetobacter baumannii) | hemolysis at 512 ug/ml [7] | Activity (Escherichia coli [8]) | MIC (Klebsiella pneumoniae [9]) | MIC (Klebsiella pneumoniae [10]) | Activity (Klebsiella pneumoniae [11]) | Activity (Escherichia coli [12]) |
| --- | --- | --- | --- | --- | --- | --- | --- | --- | --- | --- | --- | --- | --- |
| CC(C)[C@H](NC(=O)[C@@H]1CC[C@@H]2CN1C(=O)N2OS(=O)(=O)O)C(=O)NNC(=O)c1cn(C2CC2)c2cc(N3CCNCC3)c(F)cc2c1=O | > 128 µg/mL | > 128 µg/mL | 57.4 nM | 128 µg/mL (≈ 185 µM) | 16 µg/mL (≈ 23.1 µM) | Active | > 128 µg/mL | 5.1% | Active | > 128 µg/mL | > 128 µg/mL | Active | Active |
| COc1ccc(C[C@H](NC(=O)[C@@H]2CC[C@@H]3CN2C(=O)N3OS(=O)(=O)O)C(=O)NNC(=O)c2cn(C3CC3)c3cc(N4CCNCC4)c(F)cc3c2=O)cc1OC | > 64 µg/mL | > 64 µg/mL |  | > 64 µg/mL | 32 µg/mL (≈ 40 µM) |  | > 64 µg/mL |  |  | > 64 µg/mL | > 64 µg/mL |  |  |
| O=C(CNC(=O)[C@@H]1CC[C@@H]2CN1C(=O)N2OS(=O)(=O)O)NNC(=O)c1cn(C2CC2)c2cc(N3CCNCC3)c(F)cc2c1=O | > 128 µg/mL | > 128 µg/mL | 226 nM | > 256 µg/mL | 8 µg/mL (≈ 12.3 µM) | Active | > 128 µg/mL | 5.74% | Active | > 128 µg/mL | > 128 µg/mL | Active | Active |
| CC[C@H](C)C(NC(=O)[C@@H]1CC[C@@H]2CN1C(=O)N2OS(=O)(=O)O)C(=O)NNC(=O)c1cn(C2CC2)c2cc(N3CCNCC3)c(F)cc2c1=O (stereo partly drawn) | > 128 µg/mL | > 128 µg/mL |  | > 256 µg/mL | 32 µg/mL (≈ 45.3 µM) |  | > 128 µg/mL |  |  | > 128 µg/mL | > 128 µg/mL |  |  |
| CC(C)(C)OC(=O)N1CCN(c2cc3c(cc2F)c(=O)c(C(=O)NNC(=O)[C@@H]2CC[C@@H]4CN2C(=O)N4OS(=O)(=O)[O-])cn3C2CC2)CC1.CCCC[N+](CCCC)(CCCC)CCCC | > 128 µg/mL | > 128 µg/mL |  | 8 µg/mL | > 256 µg/mL |  | > 128 µg/mL |  |  | > 128 µg/mL | > 128 µg/mL |  |  |
| O=C(NNC(=O)[C@@H]1CC[C@@H]2CN1C(=O)N2OS(=O)(=O)O)c1cn(C2CC2)c2cc(N3CCNCC3)c(F)cc2c1=O | > 128 µg/mL | 128 µg/mL (≈ 216 µM) | 1.69 nM | 8 µg/mL (≈ 13.5 µM) | 16 µg/mL (≈ 27 µM) | Active | > 128 µg/mL | 4.27% | Active | > 128 µg/mL | > 128 µg/mL | Active | Active |
| O=C(O)c1cn(C2CC2)c2cc(N3CCNCC3)c(F)cc2c1=O [CIPROFLOXACIN] | 128 µg/mL (≈ 386 µM) | 0.5 µg/mL (≈ 1.51 µM) |  |  |  |  | > 128 µg/mL |  |  | > 128 µg/mL | > 128 µg/mL |  |  |
| O=C(CCCCCNC(=O)[C@@H]1CC[C@@H]2CN1C(=O)N2OS(=O)(=O)O)NNC(=O)c1cn(C2CC2)c2cc(N3CCNCC3)c(F)cc2c1=O | > 32 µg/mL | > 64 µg/mL |  | > 64 µg/mL | 4 µg/mL (≈ 5.66 µM) |  | > 64 µg/mL |  |  | > 32 µg/mL | > 64 µg/mL |  |  |
| C[C@H](NC(=O)[C@@H]1CC[C@@H]2CN1C(=O)N2OS(=O)(=O)O)C(=O)NNC(=O)c1cn(C2CC2)c2cc(N3CCNCC3)c(F)cc2c1=O | > 128 µg/mL | 32 µg/mL (≈ 48.1 µM) |  | 16 µg/mL (≈ 24.1 µM) | 1 µg/mL (≈ 1.5 µM) |  | > 128 µg/mL |  |  | > 128 µg/mL | > 128 µg/mL |  |  |
| O=C(CCCNC(=O)[C@@H]1CC[C@@H]2CN1C(=O)N2OS(=O)(=O)O)NNC(=O)c1cn(C2CC2)c2cc(N3CCNCC3)c(F)cc2c1=O | > 32 µg/mL | > 64 µg/mL |  | > 64 µg/mL | 8 µg/mL (≈ 11.8 µM) |  | > 64 µg/mL |  |  | > 32 µg/mL | > 64 µg/mL |  |  |
| O=C(NNC(=O)[C@@H]1CCCN1C(=O)[C@@H]1CC[C@@H]2CN1C(=O)N2OS(=O)(=O)O)c1cn(C2CC2)c2cc(N3CCNCC3)c(F)cc2c1=O | > 128 µg/mL | > 128 µg/mL |  | 128 µg/mL (≈ 185 µM) | 8 µg/mL (≈ 11.6 µM) |  | > 128 µg/mL |  |  | > 128 µg/mL | > 128 µg/mL |  |  |
| O=C(NNC(=O)[C@H](Cc1ccccc1)NC(=O)[C@@H]1CC[C@@H]2CN1C(=O)N2OS(=O)(=O)O)c1cn(C2CC2)c2cc(N3CCNCC3)c(F)cc2c1=O | > 128 µg/mL | > 128 µg/mL |  | 8 µg/mL (≈ 10.8 µM) | 16 µg/mL (≈ 21.6 µM) |  | > 128 µg/mL |  |  | > 128 µg/mL | > 128 µg/mL |  |  |
| NC(=O)[C@@H]1CC[C@@H]2CN1C(=O)N2OS(=O)(=O)O [AVIBACTAM] | 8 µg/mL (≈ 30.2 µM) | > 128 µg/mL | 141 nM | 256 µg/mL (≈ 965 µM) | 8 µg/mL (≈ 30.2 µM) | Active | > 128 µg/mL | 3.87% | Active | 32 µg/mL (≈ 121 µM) | 8 µg/mL (≈ 30.2 µM) | Active | Active |
